Reference: patent US11931431B2, “PSMA-targeted radiopharmaceutical for diagnosing and treating prostate cancer” (FUTURECHEM CO., LTD, priority 2018, dated 2024)
“Also recorded” adds a separate entry of the source. Like-named read-outs stand apart in the source and are kept apart here. Each block holds one molecule with its values, some of them ahead of it.

Tests used:
PSMA = PSMA (Homo sapiens, UniProt Q04609); assay: Measurement of binding capacity: competition with [^125I]30 on 22RV1 cells; set-up: host or cells: 22RV1 human prostate cancer cells
Procedure: To confirm the binding capacity of the compounds of the present invention to PSMA, the following experiment was performed.
RPMI1640 supplemented with 1% BSA (bovine serum albumin) was used as a buffer solution.
[^125I]30 (0.1 nM) obtained in Comparative Example 1 was added to a vessel containing 22RV1 cells (5×10^4), to which the compound represented by formula 1 was loaded at 9 concentrations (1.00×10^−4˜1.00×10^−12 M), followed by stirring at 37° C. for 2 hours. Upon completion of the stirring, the vessel was washed with PBS solution (2 mL) three times, and then the radioactivity was measured using a gamma counter (2480 WIZARD2 Gamma Counter PerkinElmer Co., MA). The 50% inhibition concentration (IC50) for each compound was calculated using a GraphPad Prism program (GraphPad Software, Inc., CA)
(Maresca, K. P. et al., 2009, J. Med. Chem. 52, 347-357)

PSMA^+ PC-3 PIP tumors = assay: MicroPET/CT imaging of mice transplanted with prostate cancer cell lines; assay type: in vivo, nude mouse
Procedure: A tumor model was prepared by subcutaneously injecting PSMA^+ PC-3 PIP cells (a human prostate cancer cell line) to the right side of the nude mouse hind leg. Each of the ^68Ga-labeled compounds [^68Ga]1e, [^68Ga]1g, [^68Ga]1h and [^68Ga]1k was intravenously injected with 5.5 to 6.5 MBq (148-175 μCi/200 μL), and PET/CT images were obtained using small animal INVEON PET/CT (Siemens medical solutions, Knoxville, USA) for 60 minutes. After 150 minutes, 270 minutes, and 390 minutes, PET/CT images were also obtained for 30 minutes. The obtained PET/CT image results were quantitatively analyzed using Inveon™ Research Workplace (IRW).
FIGS. 1, 2, 3, and 4 are graphs showing the quantitative analysis results of MicorPET/CT images for [^68Ga]1e, [^68Ga]1g, [^68Ga]1h, and [^68Ga]1k in % injected dose (ID)/g, and summarized in Tables 3, 4, 5, and 6, respectively.

[1] = Measurement of lipophilicity (log P), n-octanol/PBS; assay type: physicochemical; settings: mean of 3
Procedure: Each of the [^68Ga]1 compounds (1˜2 mci) synthesized in Example 14 was transferred into a vial, and the solvent was removed, to which 1 mL of n-octanol and 1 mL of PBS were added, and the lid was well closed, followed by mixing with a vortex for 1 minute. After the layers were separated, 0.1 mL was taken from each layer and the radiation dose was measured. The radiation dose was measured by repeating 3 times, and the mean value was obtained.

[2] = 22RV1 cells, [^125I]30 0.1 nM, 37° C., 2 hours, read-out: IC50
[3] = 22RV1 cells, [^125I]30 0.1 nM, 37° C., 2 hours, read-out: Ki value

Chain of PSMA (Q04609 whole entry): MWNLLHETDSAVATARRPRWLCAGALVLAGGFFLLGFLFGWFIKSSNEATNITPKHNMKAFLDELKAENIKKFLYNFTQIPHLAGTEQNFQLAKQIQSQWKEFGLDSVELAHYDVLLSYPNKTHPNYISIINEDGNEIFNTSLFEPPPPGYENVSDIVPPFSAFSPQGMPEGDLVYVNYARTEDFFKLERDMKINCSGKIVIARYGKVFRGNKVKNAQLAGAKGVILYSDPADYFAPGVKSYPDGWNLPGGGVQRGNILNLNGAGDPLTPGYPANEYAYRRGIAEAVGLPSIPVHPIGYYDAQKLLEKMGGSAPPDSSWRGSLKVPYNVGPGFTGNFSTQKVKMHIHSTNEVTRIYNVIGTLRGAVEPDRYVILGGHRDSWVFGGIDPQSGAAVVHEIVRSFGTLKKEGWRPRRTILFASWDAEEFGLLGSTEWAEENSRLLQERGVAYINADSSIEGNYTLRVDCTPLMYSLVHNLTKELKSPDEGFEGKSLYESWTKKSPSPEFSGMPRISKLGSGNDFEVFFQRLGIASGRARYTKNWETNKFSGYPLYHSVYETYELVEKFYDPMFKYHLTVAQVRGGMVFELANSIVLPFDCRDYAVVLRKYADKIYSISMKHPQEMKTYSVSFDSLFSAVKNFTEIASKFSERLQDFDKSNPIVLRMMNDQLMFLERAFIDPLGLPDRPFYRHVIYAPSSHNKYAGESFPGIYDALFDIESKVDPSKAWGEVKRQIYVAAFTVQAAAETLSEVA

SMILES: O=C(O)CCC(NC(=O)NC(CCCCN(CC(=O)O)C(=O)COCCOCCNC(=O)C(CCCCNC(=O)CCCc1ccc(I)cc1)NC(=O)CN1CCN2CCN3CCN(CC1)CC(=O)[O][Ga]([O]C(=O)C2)[O]C(=O)C3)C(=O)O)C(=O)O (centres unmarked) [Ga-1h]
- IC50 (PSMA): 11 ± 0.35 nM
- Ki (PSMA): 3 ± 0.1 nM
- binding force / binding capacity to PSMA, in words (PSMA; 22RV1 cells): higher binding capacity than the compound Ga-1e; also recorded: highest binding capacity

- IC50 (PSMA; [2]): 69 ± 3.27 nM
- Ki (PSMA; [3]): 14.4 ± 0.68 nM
SMILES: O=C(O)CC[C@H](NC(=O)N[C@@H](CCCCN(CC(=O)O)C(=O)COCCNC(=O)CN1CCN2CCN3CCN(CC1)CC(=O)[O][Ga]([O]C(=O)C2)[O]C(=O)C3)C(=O)O)C(=O)O [Ga-1i]

- IC50 (PSMA; [2]): 63.9 ± 6.09 nM
- Ki (PSMA; [3]): 12.7 ± 1.07 nM
SMILES: O=C(O)CC[C@H](NC(=O)N[C@@H](CCCCN(CC(=O)O)C(=O)COCCNC(=O)[C@H](CCCCNC(=O)CCCc1ccc(I)cc1)NC(=O)CN1CCN2CCN3CCN(CC1)CC(=O)[O][Ga]([O]C(=O)C2)[O]C(=O)C3)C(=O)O)C(=O)O [Ga-1k]

- IC50 (PSMA; [2]): 174 ± 3.87 nM
- Ki (PSMA; [3]): 32.1 ± 0.71 nM
SMILES: O=C(O)CC[C@H](NC(=O)N[C@@H](CCC(=O)N(CCOCCOCCNC(=O)CN1CCN2CCN3CCN(CC1)CC(=O)[O][Ga]([O]C(=O)C2)[O]C(=O)C3)CC(=O)O)C(=O)O)C(=O)O [Ga-1n]

- IC50 (PSMA; [2]): 1140 ± 82.4 nM
- Ki (PSMA; [3]): 282 ± 20.4 nM
SMILES: O=C(O)CC[C@H](NC(=O)N[C@@H](CCC(=O)N(CCOCCOCCNC(=O)CN1CCN2CCN3CCN(CC1)CC(=O)[O][Ga]([O]C(=O)C2)[O]C(=O)C3)CCC(=O)O)C(=O)O)C(=O)O [Ga-1o]

SMILES: O=C(O)CCC(NC(=O)NC(CCC(=O)N(CC(=O)O)Cc1cn(CCOCCNC(=O)CN2CCN3CCN4CCN(CC2)CC(=O)[O][Ga]([O]C(=O)C3)[O]C(=O)C4)nn1)C(=O)O)C(=O)O (centres unmarked) [Ga-1p]
- IC50 (PSMA; [2]): 703 ± 145 nM
- Ki (PSMA; [3]): 130 ± 26.6 nM

- intake of mouse organ: Bladder (PSMA^+ PC-3 PIP tumors; 10 min after injection): 4.12 ± 0.45 % ID/g
- intake of mouse organ: Heart (PSMA^+ PC-3 PIP tumors; 10 min after injection): 21.67 ± 0.44 % ID/g
- intake of mouse organ: Kidney (PSMA^+ PC-3 PIP tumors; 10 min after injection): 11.16 ± 1.35 % ID/g
- intake of mouse organ: Liver (PSMA^+ PC-3 PIP tumors; 10 min after injection): 11.99 ± 4.72 % ID/g
- intake of mouse organ: Muscle (PSMA^+ PC-3 PIP tumors; 10 min after injection): 2.26 ± 0.75 % ID/g
- intake of mouse organ: Tumor (PIP) (PSMA^+ PC-3 PIP tumors; 10 min after injection): 1.85 ± 0.25 % ID/g
- intake of mouse organ: Bladder (PSMA^+ PC-3 PIP tumors; 20 min after injection): 4.68 ± 0.22 % ID/g
- intake of mouse organ: Heart (PSMA^+ PC-3 PIP tumors; 20 min after injection): 20.10 ± 0.29 % ID/g
- intake of mouse organ: Kidney (PSMA^+ PC-3 PIP tumors; 20 min after injection): 11.21 ± 1.62 % ID/g
- intake of mouse organ: Liver (PSMA^+ PC-3 PIP tumors; 20 min after injection): 11.09 ± 3.46 % ID/g
- intake of mouse organ: Muscle (PSMA^+ PC-3 PIP tumors; 20 min after injection): 2.91 ± 1.21 % ID/g
- intake of mouse organ: Tumor (PIP) (PSMA^+ PC-3 PIP tumors; 20 min after injection): 3.22 ± 0.38 % ID/g
- intake of mouse organ: Bladder (PSMA^+ PC-3 PIP tumors; 30 min after injection): 4.68 ± 0.45 % ID/g
- intake of mouse organ: Heart (PSMA^+ PC-3 PIP tumors; 30 min after injection): 18.33 ± 0.13 % ID/g
- intake of mouse organ: Kidney (PSMA^+ PC-3 PIP tumors; 30 min after injection): 10.89 ± 1.36 % ID/g
- intake of mouse organ: Liver (PSMA^+ PC-3 PIP tumors; 30 min after injection): 10.04 ± 2.73 % ID/g
- intake of mouse organ: Muscle (PSMA^+ PC-3 PIP tumors; 30 min after injection): 3.09 ± 0.91 % ID/g
- intake of mouse organ: Tumor (PIP) (PSMA^+ PC-3 PIP tumors; 30 min after injection): 3.94 ± 0.38 % ID/g
- intake of mouse organ: Bladder (PSMA^+ PC-3 PIP tumors; 40 min after injection): 4.75 ± 0.21 % ID/g
- intake of mouse organ: Heart (PSMA^+ PC-3 PIP tumors; 40 min after injection): 17.22 ± 0.35 % ID/g
- intake of mouse organ: Kidney (PSMA^+ PC-3 PIP tumors; 40 min after injection): 11.06 ± 1.02 % ID/g
- intake of mouse organ: Liver (PSMA^+ PC-3 PIP tumors; 40 min after injection): 9.31 ± 2.32 % ID/g
- intake of mouse organ: Muscle (PSMA^+ PC-3 PIP tumors; 40 min after injection): 3.32 ± 1.20 % ID/g
- intake of mouse organ: Tumor (PIP) (PSMA^+ PC-3 PIP tumors; 40 min after injection): 4.40 ± 0.36 % ID/g
- intake of mouse organ: Bladder (PSMA^+ PC-3 PIP tumors; 50 min after injection): 4.83 ± 0.18 % ID/g
- intake of mouse organ: Heart (PSMA^+ PC-3 PIP tumors; 50 min after injection): 16.06 ± 0.38 % ID/g
- intake of mouse organ: Kidney (PSMA^+ PC-3 PIP tumors; 50 min after injection): 10.80 ± 1.20 % ID/g
- intake of mouse organ: Liver (PSMA^+ PC-3 PIP tumors; 50 min after injection): 8.73 ± 2.11 % ID/g
- intake of mouse organ: Muscle (PSMA^+ PC-3 PIP tumors; 50 min after injection): 3.24 ± 1.07 % ID/g
- intake of mouse organ: Tumor (PIP) (PSMA^+ PC-3 PIP tumors; 50 min after injection): 5.03 ± 0.33 % ID/g
- intake of mouse organ: Bladder (PSMA^+ PC-3 PIP tumors; 60 min after injection): 4.81 ± 0.24 % ID/g
- intake of mouse organ: Heart (PSMA^+ PC-3 PIP tumors; 60 min after injection): 15.03 ± 0.27 % ID/g
- intake of mouse organ: Kidney (PSMA^+ PC-3 PIP tumors; 60 min after injection): 10.96 ± 1.18 % ID/g
- intake of mouse organ: Liver (PSMA^+ PC-3 PIP tumors; 60 min after injection): 8.22 ± 1.79 % ID/g
- intake of mouse organ: Muscle (PSMA^+ PC-3 PIP tumors; 60 min after injection): 3.49 ± 1.28 % ID/g
- intake of mouse organ: Tumor (PIP) (PSMA^+ PC-3 PIP tumors; 60 min after injection): 5.45 ± 0.16 % ID/g
- intake of mouse organ: Bladder (PSMA^+ PC-3 PIP tumors; 150 min after injection): 18.10 ± 6.51 % ID/g
- intake of mouse organ: Heart (PSMA^+ PC-3 PIP tumors; 150 min after injection): 7.85 ± 1.63 % ID/g
- intake of mouse organ: Kidney (PSMA^+ PC-3 PIP tumors; 150 min after injection): 11.40 ± 1.13 % ID/g
- intake of mouse organ: Liver (PSMA^+ PC-3 PIP tumors; 150 min after injection): 5.00 ± 1.41 % ID/g
- intake of mouse organ: Muscle (PSMA^+ PC-3 PIP tumors; 150 min after injection): 2.75 ± 1.20 % ID/g
- intake of mouse organ: Tumor (PIP) (PSMA^+ PC-3 PIP tumors; 150 min after injection): 11.00 ± 2.12 % ID/g
- intake of mouse organ: Bladder (PSMA^+ PC-3 PIP tumors; 270 min after injection): 20.10 ± 4.53 % ID/g
- intake of mouse organ: Heart (PSMA^+ PC-3 PIP tumors; 270 min after injection): 5.10 ± 0.85 % ID/g
- intake of mouse organ: Kidney (PSMA^+ PC-3 PIP tumors; 270 min after injection): 9.25 ± 0.78 % ID/g
- intake of mouse organ: Liver (PSMA^+ PC-3 PIP tumors; 270 min after injection): 3.60 ± 0.71 % ID/g
- intake of mouse organ: Muscle (PSMA^+ PC-3 PIP tumors; 270 min after injection): 2.15 ± 0.78 % ID/g
- intake of mouse organ: Tumor (PIP) (PSMA^+ PC-3 PIP tumors; 270 min after injection): 15.70 ± 4.24 % ID/g
- intake of mouse organ: Bladder (PSMA^+ PC-3 PIP tumors; 390 min after injection): 14.25 ± 0.64 % ID/g
- intake of mouse organ: Heart (PSMA^+ PC-3 PIP tumors; 390 min after injection): 3.80 ± 1.41 % ID/g
- intake of mouse organ: Kidney (PSMA^+ PC-3 PIP tumors; 390 min after injection): 7.70 ± 0.71 % ID/g
- intake of mouse organ: Liver (PSMA^+ PC-3 PIP tumors; 390 min after injection): 2.25 ± 0.64 % ID/g
- intake of mouse organ: Muscle (PSMA^+ PC-3 PIP tumors; 390 min after injection): 1.20 ± 0.56 % ID/g
- intake of mouse organ: Tumor (PIP) (PSMA^+ PC-3 PIP tumors; 390 min after injection): 18.25±4.17 % ID/g
- excretion, in words (PSMA^+ PC-3 PIP tumors; MicroPET/CT): rapidly excreted out of the body
SMILES: O=C(O)CCC(NC(=O)NC(CCCCN(CC(=O)O)C(=O)COCCNC(=O)C(CCCCNC(=O)CCCc1ccc(I)cc1)NC(=O)CN1CCN2CCN3CCN(CC1)CC(=O)[O][68Ga]([O]C(=O)C2)[O]C(=O)C3)C(=O)O)C(=O)O (centres unmarked) [[^68Ga]1k]
- residence time in the blood, in words (PSMA^+ PC-3 PIP tumors; MicroPET/CT): residence time in the blood was increased
- tumor intake over time, in words (PSMA^+ PC-3 PIP tumors; MicroPET/CT): tumor intake continued to increase after 390 minutes

- logP [1]: −3.06
SMILES: O=C(O)CC[C@H](NC(=O)N[C@@H](CCC(=O)N(CCOCCOCCNC(=O)CN1CCN2CCN3CCN(CC1)CC(=O)[O][68Ga]([O]C(=O)C2)[O]C(=O)C3)CC(=O)O)C(=O)O)C(=O)O [[^68Ga]1n]
